Source: patent US8415312B2, “Compound which is a nystatin derivative” (Biosergen AS, priority 2007, dated 2013)
Converted amounts (≈) assume the structure as drawn.

Tests used:
Assay in all cases: Antifungal susceptibility study (1), broth microdilution MIC
Type in all cases: cell-based
[1] = tested on: Candida albicans ATCC 14053; settings: lowest concentration preventing any visible growth, read at 48 hours, 35° C., RPMI 1640 pH 7.0
Method: (§1) ACROS ORGANICS, New Jersey, USA), pH 7.0, was used in study. […] Then these DMSO solutions were diluted 50-fold (first 10-fold and then 5-fold) in the test medium. […] The solutions were prepared just before using. The organisms used for susceptibility testing were: Candida albicans ATCC 14053, Cryptococcus humicolus ATCC 9949, Aspergillus niger ATCC 16404 and Fusarium oxysporum VKM F-140 (=CMI, IMI 90473). Organisms were stored on potato dextrose agar […] 50% glycerol solution at -70° C. For short-term storage, stock cultures were stored on agar […] 4° C. The cultures of yeasts were sub-cultured onto Sabouraud dextrose (SAB) agar and incubated for 24 hours at 35° C. (Candida albicans) or for 48 hours at 25° C. (Cryptococcus humicolus) to obtain a freshly grown pure culture. The cultures of moulds were sub-cultured onto potato dextrose agar and incubated for 7 days at 35° C. […] (Fusarium oxysporum) to ensure maximum sporulation. […] Inoculum quantitation was performed by plating dilution of the inoculum on Sabouraud dextrose agar to determine the viable number of CFU per milliliter. Sterile 96-well flat-bottomed microtitration plates were used for testing. 100 μl of diluted inocula were dispensed into each microdilution well containing 100 μl of the double dilutions of compounds. Drug-free and yeast/mould-free controls were included. Microdilution trays were incubated at 35° C. (Candida albicans and moulds) or 25° C. (Cryptococcus humicolus) without agitation and observed for the presence or absence of visible growth. […] Minimal inhibitory concentrations (MICs) were read at 48 hours.

[2] = tested on: Cryptococcus humicolus ATCC 9949; settings: lowest concentration preventing any visible growth, read at 48 hours, 25° C., RPMI 1640 pH 7.0
Method: as §1

[3] = tested on: Aspergillus niger ATCC 16404; settings: lowest concentration preventing any visible growth, read at 48 hours, 35° C., RPMI 1640 pH 7.0
Method: (§2) ACROS ORGANICS, New Jersey, USA), pH 7.0, was used in study. […] Then these DMSO solutions were diluted 50-fold (first 10-fold and then 5-fold) in the test medium. […] The solutions were prepared just before using. The organisms used for susceptibility testing were: Candida albicans ATCC 14053, Cryptococcus humicolus ATCC 9949, Aspergillus niger ATCC 16404 and Fusarium oxysporum VKM F-140 (=CMI, IMI 90473). Organisms were stored on potato dextrose agar […] 50% glycerol solution at -70° C. For short-term storage, stock cultures were stored on agar […] 4° C. The cultures of yeasts were sub-cultured onto Sabouraud dextrose (SAB) agar and incubated for 24 hours at 35° C. (Candida albicans) or for 48 hours at 25° C. (Cryptococcus humicolus) to obtain a freshly grown pure culture. The cultures of moulds were sub-cultured onto potato dextrose agar and incubated for 7 days at 35° C. […] (Fusarium oxysporum) to ensure maximum sporulation. […] Finally, the suspensions were vortexed for 15 s to break up clumps of cells and then filtered through four layers of sterile gauze. The densities of conidial spore suspensions was measured at 530 nm and adjusted to 0.09-0.11 for Aspergillus niger and 0.15-0.17 for Fusarium oxysporum. These suspensions were diluted 1:50 with the standard medium. […] Inoculum quantitation was performed by plating dilution of the inoculum on Sabouraud dextrose agar to determine the viable number of CFU per milliliter. Sterile 96-well flat-bottomed microtitration plates were used for testing. 100 μl of diluted inocula were dispensed into each microdilution well containing 100 μl of the double dilutions of compounds. Drug-free and yeast/mould-free controls were included. Microdilution trays were incubated at 35° C. (Candida albicans and moulds) or 25° C. (Cryptococcus humicolus) without agitation and observed for the presence or absence of visible growth. […] Minimal inhibitory concentrations (MICs) were read at 48 hours.

[4] = tested on: Fusarium oxysporum VKM F-140; settings: lowest concentration preventing any visible growth, read at 48 hours, 35° C., RPMI 1640 pH 7.0
Method: as §2

Compound | MIC Candida albicans ATCC 14053 [1] [µg/mL] | MIC Cryptococcus humicolus ATCC 9949 [2] [µg/mL] | MIC Aspergillus niger ATCC 16404 [3] [µg/mL] | MIC Fusarium oxysporum VKM F-140 [4] [µg/mL]
CC1O[C@@H](O[C@H]2/C=C/C=C/C=C/C=C/C=C/C=C/C=C/[C@H](C)[C@@H](O)[C@@H](C)[C@H](C)OC(=O)C[C@H](O)C[C@H](O)C[C@H](O)CC[C@@H](O)[C@H](O)C[C@]3(O)C[C@H](O)[C@@H](C(=O)NCCN(C)C)[C@H](C2)O3)[C@H](O)C(NC(=O)[C@@H](N)CCCCN)[C@@H]1O.Cl (stereo partly shown) [Compound 44] | 1 | 2 | 2 | 4
CC1O[C@@H](O[C@H]2/C=C/C=C/C=C/C=C/C=C/C=C/C=C/[C@H](C)[C@@H](O)[C@@H](C)[C@H](C)OC(=O)C[C@H](O)C[C@H](O)C[C@H](O)CC[C@@H](O)[C@H](O)C[C@]3(O)C[C@H](O)[C@@H](C)[C@H](C2)O3)[C@H](O)C(N)[C@@H]1O.N[C@@H](CC(=O)O)C(=O)O (stereo partly shown) [Compound 55] | 2 | 2 | 2 | 2
CC1C=CC=CC=CC=CC=CC=CC=CC(OC2OC(C)C(O)C(NCC3(O)OCC(O)C(O)C3O)C2O)CC2OC(O)(CC(O)C(O)CCC(O)CC(O)CC(O)CC(=O)OC(C)C(C)C1O)CC(O)C2C(=O)NCCCN(C)C (stereo not shown) [Compound 30] | 1 (≈ 0.854 µM) | 1 (≈ 0.854 µM) | 1 (≈ 0.854 µM) | 4 (≈ 3.42 µM)
CC1O[C@@H](O[C@H]2/C=C/C=C/C=C/C=C/C=C/C=C/C=C/[C@H](C)[C@@H](O)[C@@H](C)[C@H](C)OC(=O)C[C@H](O)C[C@H](O)C[C@H](O)CC[C@@H](O)[C@H](O)C[C@]3(O)C[C@H](O)[C@@H](C)[C@H](C2)O3)[C@H](O)C(NCc2ccc(N(C)C)cc2)[C@@H]1O (stereo partly shown) [Compound 50, N-(4-N,N-Di-methylaminobenzyl) Compound 1] | 2 (≈ 1.95 µM) | 2 (≈ 1.95 µM) | 2 (≈ 1.95 µM) | 8 (≈ 7.79 µM)
CC1C=CC=CC=CC=CC=CC=CC=CC(OC2OC(C)C(O)C(NC(=O)C(N)CCCCN)C2O)CC2OC(O)(CC(O)C(O)CCC(O)CC(O)CC(O)CC(=O)OC(C)C(C)C1O)CC(O)C2C(=O)NCCCN(C)C [Compound 33, N-L-lysyl S44HP DMAP-Amide] | 1 (≈ 0.88 µM) | 1 (≈ 0.88 µM) | 1 (≈ 0.88 µM) | 2 (≈ 1.76 µM)
CC1C=CC=CC=CC=CC=CC=CC=CC(OC2OC(C)C(O)C(NC(=O)C(N)CCCCN)C2O)CC2OC(O)(CC(O)C(O)CCC(O)CC(O)CC(O)CC(=O)OC(C)C(C)C1O)CC(O)C2C(=O)NCCCO (stereo not shown) [Compound 38] | 1 (≈ 0.901 µM) | 1 (≈ 0.901 µM) | 2 (≈ 1.8 µM) | 4 (≈ 3.61 µM)
CC1C=CC=CC=CC=CC=CC=CC=CC(OC2OC(C)C(O)C(NC(=O)C(N)CCCCN)C2O)CC2OC(O)(CC(O)C(O)CCC(O)CC(O)CC(O)CC(=O)OC(C)C(C)C1O)CC(O)C2C(=O)O (stereo not shown) [Compound 23] | 4 (≈ 3.8 µM) | 4 (≈ 3.8 µM) | 8 (≈ 7.6 µM) | 8 (≈ 7.6 µM)
CC1C=CC=CC=CC=CC=CC=CC=CC(OC2OC(C)C(O)C(NC(=O)c3ccc(CN)cc3)C2O)CC2OC(O)(CC(O)C(O)CCC(O)CC(O)CC(O)CC(=O)OC(C)C(C)C1O)CC(O)C2C(=O)NCCCO (stereo not shown) [Compound 40] | 2 (≈ 1.79 µM) | 2 (≈ 1.79 µM) | 4 (≈ 3.59 µM) | 16 (≈ 14.4 µM)
CC1C=CC=CC=CC=CC=CC=CC=CC(OC2OC(C)C(O)C(NCc3ccc(N(C)C)cc3)C2O)CC2OC(O)(CC(O)C(O)CCC(O)CC(O)CC(O)CC(=O)OC(C)C(C)C1O)CC(O)C2C(=O)NCCCN(C)C (stereo not shown) [Compound 32] | 2 (≈ 1.75 µM) | 2 (≈ 1.75 µM) | 2 (≈ 1.75 µM) | 8 (≈ 7.01 µM)
CC1C=CC=CC=CC=CC=CC=CC=CC(OC2OC(C)C(O)C(NCC3(O)OCC(O)C(O)C3O)C2O)CC2OC(O)(CC(O)C(O)CCC(O)CC(O)CC(O)CC(=O)OC(C)C(C)C1O)CC(O)C2C(=O)NCCCN(C)C (stereo not shown) [Compound 31, N-tagatopyronosyl S44HP DMAP amide] | 1 (≈ 0.854 µM) | 2 (≈ 1.71 µM) | 2 (≈ 1.71 µM) | 4 (≈ 3.42 µM)
CC1O[C@@H](O[C@H]2/C=C/C=C/C=C/C=C/C=C/C=C/C=C/[C@H](C)[C@@H](O)[C@@H](C)[C@H](C)OC(=O)C[C@H](O)C[C@H](O)C[C@H](O)CC[C@@H](O)[C@H](O)C[C@]3(O)C[C@H](O)[C@@H](C)[C@H](C2)O3)[C@H](O)C(N)[C@@H]1O.N[C@H](CCC(=O)O)C(=O)O (stereo partly shown) [Compound 54] | 2 | 2 | 2 | 2
CC1C=CC=CC=CC=CC=CC=CC=CC(OC2OC(C)C(O)C(NCCCN)C2O)CC2OC(O)(CC(O)C(O)CCC(O)CC(O)CC(O)CC(=O)OC(C)C(C)C1O)CC(O)C2C(=O)O (stereo not shown) [Compound 21] | 2 (≈ 2.04 µM) | 4 (≈ 4.08 µM) | 4 (≈ 4.08 µM) | 4 (≈ 4.08 µM)
CC1O[C@@H](O[C@H]2/C=C/C=C/C=C/C=C/C=C/C=C/C=C/[C@H](C)[C@@H](O)[C@@H](C)[C@H](C)OC(=O)C[C@H](O)C[C@H](O)C[C@H](O)CC[C@@H](O)[C@H](O)C[C@]3(O)C[C@H](O)[C@@H](C)[C@H](C2)O3)[C@H](O)C(N)[C@@H]1O.Cl (stereo partly shown) [Compound 53, Compound 1 Hydrochloride] | 2 | 2 | 4 | 4
CC1C=CC=CC=CC=CC=CC=CC=CC(OC2OC(C)C(O)C(NCc3ccc(N(C)C)cc3)C2O)CC2OC(O)(CC(O)C(O)CCC(O)CC(O)CC(O)CC(=O)OC(C)C(C)C1O)CC(O)C2C(=O)NCCCO (stereo not shown) [Compound 37] | 2 (≈ 1.79 µM) | 1 (≈ 0.897 µM) | 2 (≈ 1.79 µM) | 4 (≈ 3.59 µM)
CC1C=CC=CC=CC=CC=CC=CC=CC(OC2OC(C)C(O)C(NC(=O)CN(C)C)C2O)CC2OC(O)(CC(O)C(O)CCC(O)CC(O)CC(O)CC(=O)OC(C)C(C)C1O)CC(O)C2C(=O)NCCCN(C)C (stereo not shown) [Compound 34] | 1 (≈ 0.915 µM) | 2 (≈ 1.83 µM) | 1 (≈ 0.915 µM) | 4 (≈ 3.66 µM)
CC1O[C@@H](O[C@H]2/C=C/C=C/C=C/C=C/C=C/C=C/C=C/[C@H](C)[C@@H](O)[C@@H](C)[C@H](C)OC(=O)C[C@H](O)C[C@H](O)C[C@H](O)CC[C@@H](O)[C@H](O)C[C@]3(O)C[C@H](O)[C@@H](C)[C@H](C2)O3)[C@H](O)C(N)[C@@H]1O.O=C(O)C(Cl)Cl (stereo partly shown) [Compound 57] | 2 | 2 | 2 | 2
